In patent US6180767A, “Peptide nucleic acid conjugates” (Thomas Jefferson University, priority 1997, dated 2001):
Where no end group is shown, it is not given here.

Tests used:
[1] = test system: P6 cells (murine Balb/c3T3 cells transfected with human IGF1R gene); assay: Cellular uptake of fluoresceinated compounds, confocal fluorescence microscopy; type: cell-based; details: 1 μM, 4 hours at 37° C., serum-free DMEM
Description: P6 cells, which are murine Balb/c3T3 cells transfected with human insulin-like growth factor receptor (IGF1R) gene, overexpress IGF1R. The cells were plated on LAB TEK 8 well tissue culture "CHAMBER SLIDES" from Nunc, Inc., Naperville, Ill. in 10% FBS/DMEM at a concentration of 20,000 cells/chamber. The cells were allowed to attach and grow for 24 hours in a humidified cell incubator with 5% CO2 at 37° C. The attached cells were then washed with serum-free DMEM and PBS. The cells were incubated for 4 hours at 37° C. with 1 μM of the fluoresceinated PNA-peptide (H-Gly-SEQ ID NO:5/SEQ ID NO: 1) or fluoresceinyl-PNA (H-Gly-SEQ ID NO:5-CONH2) in serum-free DMEM. Human Jurkat cells, which have very low copies of IGF1R (Lal et al., Leukemia Res. 17, 31-35, 1983) were used as a negative control. The Jurkat cells were grown in 10% FBS/RPMI. The Jurkat cells were treated in the same manner as the P6 cells, except that necessary modifications were made in handling the cells as they grow in suspension. […]
The fixed slides were analyzed under laser confocal fluorescence and phase contrast microscopy to observe the cellular uptake of the fluorescent oligomers. […] This is an advantage over conventional fluorescence microscopy, which cannot differentiate between signals inside and outside of the cells.

[2] = test system: tumor cell lines dependent on IGFR1; details: Pietrzkowski et al., Cancer Res. 52, 6447-6451, 1992; cited from earlier work
[3] = biological target: IGF1-R (Homo sapiens, UniProt P08069); details: Pietrzkowski et al., Cancer Res. 52, 6447-6451, 1992; cited from earlier work
Sequence of IGF1-R (P08069 31-736 limits assumed): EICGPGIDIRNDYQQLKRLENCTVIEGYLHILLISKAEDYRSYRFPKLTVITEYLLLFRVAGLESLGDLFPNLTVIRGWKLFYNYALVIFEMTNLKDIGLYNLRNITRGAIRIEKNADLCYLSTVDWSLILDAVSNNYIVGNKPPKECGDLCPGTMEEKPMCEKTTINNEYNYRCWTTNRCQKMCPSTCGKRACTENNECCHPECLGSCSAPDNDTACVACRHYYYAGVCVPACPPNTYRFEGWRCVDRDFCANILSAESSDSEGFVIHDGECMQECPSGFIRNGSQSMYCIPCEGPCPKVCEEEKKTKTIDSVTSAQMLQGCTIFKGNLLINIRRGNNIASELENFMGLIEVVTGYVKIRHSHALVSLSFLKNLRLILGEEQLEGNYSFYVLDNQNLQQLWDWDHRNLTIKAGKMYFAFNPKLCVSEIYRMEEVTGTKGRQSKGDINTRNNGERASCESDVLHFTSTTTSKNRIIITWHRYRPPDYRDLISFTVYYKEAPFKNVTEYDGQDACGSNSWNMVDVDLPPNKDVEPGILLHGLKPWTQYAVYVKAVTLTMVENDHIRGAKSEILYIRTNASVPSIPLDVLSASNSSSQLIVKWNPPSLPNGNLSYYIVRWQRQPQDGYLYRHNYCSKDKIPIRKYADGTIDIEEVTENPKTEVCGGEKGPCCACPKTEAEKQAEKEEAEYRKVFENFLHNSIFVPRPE
Sequence of IGF1-R (P08069 741-1367 partner limits assumed): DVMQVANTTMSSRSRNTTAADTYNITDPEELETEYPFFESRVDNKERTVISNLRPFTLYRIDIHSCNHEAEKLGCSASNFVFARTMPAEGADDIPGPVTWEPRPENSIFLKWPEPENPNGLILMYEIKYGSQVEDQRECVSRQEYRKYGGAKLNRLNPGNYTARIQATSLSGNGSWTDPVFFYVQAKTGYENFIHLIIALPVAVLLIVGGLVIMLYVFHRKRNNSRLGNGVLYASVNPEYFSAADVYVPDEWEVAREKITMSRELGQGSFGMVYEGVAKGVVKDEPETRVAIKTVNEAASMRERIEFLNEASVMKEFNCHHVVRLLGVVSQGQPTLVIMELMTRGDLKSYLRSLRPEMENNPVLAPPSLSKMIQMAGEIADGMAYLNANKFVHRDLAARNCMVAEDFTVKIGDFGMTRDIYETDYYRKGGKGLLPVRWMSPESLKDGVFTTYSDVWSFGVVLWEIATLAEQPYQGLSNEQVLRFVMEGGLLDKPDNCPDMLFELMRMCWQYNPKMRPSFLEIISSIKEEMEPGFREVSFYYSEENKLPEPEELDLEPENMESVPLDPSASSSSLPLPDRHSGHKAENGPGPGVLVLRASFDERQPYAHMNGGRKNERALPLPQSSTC

[4] = Serum stability of the PNA-peptide conjugate; type: in vitro ADME; details: 10% fetal bovine serum/PBS, 12 hours and 24 hours, reverse phase HPLC
Description: The title conjugate was incubated in 10% fetal bovine serum/PBS for 12 hours and 24 hours. After the incubation, one volume of acetonitrile was added to precipitated protein, which was pelleted by centrifugation. Free conjugate in the supernatant was dried under vacuo. It was then analyzed by reverse phase HPLC as described above.

[5] = test system: Jurkat cells; assay: Cellular uptake of [14C]PNA derivatives; type: cell-based, Human; details: Jurkat cells (virtually no IGF1R), 1 μM 14C-labeled derivatives, FIG. 8
Description: (§1) Uptake studies with radiolabeled PNA derivatives were carried out. P6 or Jurkat cells above were plated in 12.5 cm^2 flasks and grown for two days to 50-80% confluence, on the order of 10^6 cells per flask. The medium was then removed and replaced with fresh medium containing 1 μM of the various [^14 C]PNA derivatives, pre-warmed to 37° C.; background cells received medium with no [^14 C]PNA derivatives. After incubation for various times, attached cells were washed directly in the flasks using four washes--once with fresh medium, once with PBS, once with high salt/low pH buffer, and once with PBS. […]
(§2) After the final wash, the cells were lysed in 1 ml of 1% SDS in H2 O, and the samples were processed for total protein measurement and liquid scintillation counting. 50 μl of the lysate was allocated for total protein measurement, and ^14 C activity in the remaining lysate was measured by liquid scintillation counting, from which background counts were subtracted. […]
(§3) Control samples of varying confluence were trypsinized following the last wash, resuspended in PBS for cell counting, and then lysed to obtain total protein values. […] The curve was used to estimate cell counts from the total protein measurements of treated cells, and radioactivity counts were used to calculate pmoles of oligonucleotide using the specific activity of each labeled oligonucleotide. […]

[6] = test system: P6 cells; assay: Cellular uptake of [14C]PNA derivatives; type: cell-based, murine; details: 1 μM 14C-labeled derivatives, FIG. 6
Description: as §1, §2, §3

[7] = test system: Balb/c3T3 cells; assay: Cellular uptake of [14C]PNA derivatives; type: cell-based, murine; details: Balb/c3T3 cells (low levels of IGF1R), 14C-labeled derivatives, FIG. 7

O=C1OC2(c3ccc(O)cc3Oc3cc(O)ccc32)c2ccccc21 [fluorescein]
cellular uptake (fluorescence within the cells) [1]: absence of uptake

CSKAPKLPAAYC (cysteine pairing not given here) [SEQ ID NO:8]
inhibition of proliferation/growth of tumor cell lines [2]: inhibits the growth of certain cancer cell lines
competition with the natural ligand for binding to IGF1-R [3]: competes with the natural ligand for binding to IGF1-R

GCSKAPKLPAALC (cysteine pairing not given here) [SEQ ID NO:4]
inhibition of proliferation/growth of tumor cell lines [2]: inhibits the proliferation of tumor cell lines dependent on IGFR1

H-Gly-CCGCTTCCTTTC-Gly-Gly-Gly-Gly-D-Cys-D-Ser-D-Lys-D-Cys-NH2 [title PNA-peptide conjugate]
stability of the conjugate in serum [4]: stability of the conjugate was confirmed
uptake relative to the controls [5]: little preferential uptake
uptake relative to control PNA or control PNA-peptide [6]: five-fold more uptake
uptake relative to the controls [7]: four-fold excess
